# Measurements taken from ChEMBL document CHEMBL5241092, “The antibacterial activity of fluoroquinolone derivatives: An update (2018-2021)” (2021).
# Key:
# [1] = test system: Staphylococcus aureus; assay: Antibacterial activity against Staphylococcus aureus; assay type: functional
# [2] = test system: Staphylococcus aureus; assay: Antibacterial activity against methicillin resistant Staphylococcus aureus 1; assay type: functional
# [3] = test system: Staphylococcus aureus; assay: Antibacterial activity against methicillin resistant Staphylococcus aureus 3; assay type: functional
# [4] = test system: Staphylococcus aureus; assay: Antibacterial activity against methicillin resistant Staphylococcus aureus 2; assay type: functional
# [5] = test system: Staphylococcus aureus; assay: Antibacterial activity against methicillin resistant Staphylococcus aureus; assay type: functional
# [6] = test system: Pseudomonas aeruginosa; assay: Antibacterial activity against Pseudomonas aeruginosa; assay type: functional
# [7] = test system: Escherichia coli; assay: Antibacterial activity against Escherichia coli; assay type: functional
# [8] = test system: Salmonella enteritidis; assay: Antibacterial activity against Salmonella enteritidis; assay type: functional, Salmonella enterica subsp. enterica serovar Enteritidis; details: Salmonella enterica
# [9] = test system: Staphylococcus aureus; assay: Antibacterial activity against methicillin resistant Staphylococcus aureus reference strain; assay type: functional
# [10] = test system: Staphylococcus aureus; assay: Antibacterial activity against methicillin resistant Staphylococcus aureus clinical strain; assay type: functional
# [11] = test system: Escherichia coli; assay: Antibacterial activity against quinolone susceptible Escherichia coli; assay type: functional
# [12] = test system: Pseudomonas aeruginosa; assay: Antibacterial activity against quinolone susceptible Pseudomonas aeruginosa; assay type: functional
# [13] = test system: Staphylococcus aureus; assay: Potency index, ratio of levofloxacin MIC to test compound MIC for antibacterial activity against fluoroquinolone/methicillin resistant Staphylococcus aureus; assay type: functional
# [14] = test system: Staphylococcus aureus; assay: Antibacterial activity against fluoroquinolone sensitive Staphylococcus aureus; assay type: functional
# [15] = test system: Bacillus subtilis; assay: Antibacterial activity against Bacillus subtilis; assay type: functional
# [16] = test system: Staphylococcus epidermidis; assay: Antibacterial activity against Staphylococcus epidermidis; assay type: functional
# [17] = test system: Clostridioides difficile; assay: Antibacterial activity against Clostridioides difficile; assay type: functional
# [18] = test system: Staphylococcus aureus; assay: Antibacterial activity against fluoroquinolone/methicillin resistant Staphylococcus aureus; assay type: functional
# [19] = test system: Staphylococcus aureus; assay: Antibacterial activity against ciprofloxacin resistant Staphylococcus aureus; assay type: functional
# [20] = test system: Escherichia coli; assay: Antibacterial activity against ciprofloxacin resistant Escherichia coli; assay type: functional
# [21] = test system: Klebsiella pneumoniae; assay: Antibacterial activity against Klebsiella pneumoniae; assay type: functional
# [22] = test system: Shigella flexneri; assay: Antibacterial activity against Shigella flexneri; assay type: functional
# [23] = test system: Citrobacter freundii; assay: Antibacterial activity against Citrobacter freundii; assay type: functional
# [24] = test system: Vibrio cholerae; assay: Antibacterial activity against Vibrio cholerae; assay type: functional
# [25] = Antibacterial activity against Salmonella typhi; assay type: functional, Salmonella enterica subsp. enterica serovar Typhimurium; details: Salmonella enterica
# [26] = test system: Serratia marcescens; assay: Antibacterial activity against Serratia marcescens; assay type: functional
# [27] = test system: Staphylococcus aureus; assay: Antibacterial activity against methicillin susceptible Staphylococcus aureus; assay type: functional
# [28] = test system: Streptococcus pneumoniae; assay: Antibacterial activity against Streptococcus pneumoniae; assay type: functional
# [29] = test system: Escherichia coli; assay: Antibacterial activity against quinolone resistant Escherichia coli; assay type: functional
# [30] = test system: Acinetobacter baumannii; assay: Antibacterial activity against quinolone resistant Acinetobacter baumannii; assay type: functional
# [31] = test system: Bacillus cereus; assay: Antibacterial activity against Bacillus cereus; assay type: functional
# [32] = test system: Enterococcus faecalis; assay: Antibacterial activity against Enterococcus faecalis; assay type: functional
# [33] = test system: Yersinia pseudotuberculosis; assay: Antibacterial activity against Yersinia pseudotuberculosis; assay type: functional
smiles,measurement,setting,value
CCn1cc(C(=O)O)c(=O)c2cc(F)c(N3CCN(Cc4nnc(-c5ccccc5Cl)o4)CC3)cc21,MIC,[1],0.25 µg/mL
same,MIC,[2],0.25 µg/mL
same,MIC,[3],0.25 µg/mL
same,MIC,[4],0.25 µg/mL
O=C(O)c1cn(-c2ccc(F)cc2)c2cc(N3CCN(Cc4nc5ccc(Cl)cc5c(=O)[nH]4)CC3)c(F)cc2c1=O,MIC,[1],0.125 µg/mL
same,MIC,[5],0.125 µg/mL
CCn1cc(C(=O)O)c(=O)c2cc(F)c(N3CCN(C(=O)CN4C(=O)S/C(=C\c5ccccc5)C4=O)CC3)cc21,MIC,[6],0.5 µg/mL
same,MIC,[7],0.5 µg/mL
same,MIC,[8],0.5 µg/mL
CCn1cc(C(=O)O)c(=O)c2cc(F)c(N3CCN(C(=O)CN4C(=O)S/C(=C\c5ccc(OC)cc5)C4=O)CC3)cc21,MIC,[6],0.25 µg/mL
same,MIC,[7],0.25 µg/mL
same,MIC,[8],0.25 µg/mL
CCn1cc(C(=O)O)c(=O)c2cc(F)c(N3CCN(Cc4nnc(-c5ccc(OC)cc5)o4)CC3)cc21,MIC,[1],0.25 µg/mL
same,MIC,[2],0.25 µg/mL
same,MIC,[3],0.25 µg/mL
same,MIC,[4],0.25 µg/mL
O=C(O)c1cn(C2CC2)c2cc(N3CCN(Cc4cc5ccccc5cc4O)CC3)c(F)cc2c1=O,MIC,[9],0.08 µg/mL
same,MIC,[10],0.2 µg/mL
CNC1CN(c2c(F)cc3c(=O)c(C(=O)O)cn(-c4cc(N)c(F)cc4CO)c3c2Cl)C1,MIC,[11],0.008 µg/mL
same,MIC,[12],0.008 µg/mL
COc1c(N2CCN(C(=O)Cn3cc(CN4C(=O)C(=O)c5cc(F)ccc54)nn3)C(C)C2)c(F)cc2c(=O)c(C(=O)O)cn(C3CC3)c12 (configuration not stated),MIC,[1],≤ 0.03 µg/mL
same,MIC,[2],≤ 0.03 µg/mL
same,MIC,[3],≤ 0.03 µg/mL
same,MIC,[4],≤ 0.03 µg/mL
C[C@H]1COc2c(N3C4CCC3CC(O)C4)c(F)cc3c(=O)c(C(=O)O)cn1c23 (some centres not stated),Ratio,[13],4
same,MIC,[14],≤ 0.5 µg/mL
CC(=O)C(C(C)=O)C(=O)c1cn(C2CC2)c2cc(N3CCN(/N=N/c4nc(C)cc(C)n4)CC3)c(F)cc2c1=O,MIC,[15],0.015 µg/mL
same,MIC,[1],0.015 µg/mL
same,MIC,[16],0.015 µg/mL
Cc1c(-c2cnc(N)c(C#N)c2)c(F)cc2c(=O)c(C(=O)O)cn(C3CC3)c12,MIC50,[17],0.125 µg/mL
same,MIC90,[17],0.5 µg/mL
C[C@H]1COc2c(N3C4CCC3CC(OC(=O)CCl)C4)c(F)cc3c(=O)c(C(=O)O)cn1c23 (some centres not stated),Ratio,[13],4
same,MIC,[18],≤ 0.5 µg/mL
same,MIC,[14],≤ 0.5 µg/mL
CCOc1cc(OCC)nc(/N=N/N2CCN(c3cc4c(cc3F)c(=O)c(C(=O)C(C(=O)OC)C(=O)OC)cn4C3CC3)CC2)n1,MIC,[15],0.015 µg/mL
same,MIC,[1],0.015 µg/mL
same,MIC,[16],0.015 µg/mL
CCn1cc(C(=O)O)c(=O)c2cc(F)c(N3CCN(C(=O)CN4C(=O)S/C(=C\c5ccc(Cl)cc5Cl)C4=O)CC3)cc21,MIC,[6],0.25 µg/mL
same,MIC,[7],0.25 µg/mL
same,MIC,[8],0.25 µg/mL
CCn1cc(C(=O)O)c(=O)c2cc(F)c(N3CCN(C(=O)CN4C(=O)S/C(=C\c5ccc(F)cc5)C4=O)CC3)cc21,MIC,[6],0.25 µg/mL
same,MIC,[7],0.25 µg/mL
same,MIC,[8],0.25 µg/mL
CC(Cl)C(=O)OC1CC2CCC(C1)N2c1c(F)cc2c(=O)c(C(=O)O)cn3c2c1OC[C@@H]3C (some centres not stated),Ratio,[13],4
same,MIC,[18],≤ 0.5 µg/mL
same,MIC,[14],≤ 0.5 µg/mL
CCn1cc(C(=O)O)c(=O)c2cc(F)c(N3CCN(C(=O)CN4C(=O)S/C(=C\c5ccc(Cl)cc5)C4=O)CC3)cc21,MIC,[6],0.25 µg/mL
same,MIC,[7],0.25 µg/mL
same,MIC,[8],0.25 µg/mL
CCn1cc(C(=O)O)c(=O)c2cc(F)c(N3CCN(C(=O)CN4C(=O)S/C(=C\c5ccc(N(C)C)cc5)C4=O)CC3)cc21,MIC,[6],0.25 µg/mL
same,MIC,[7],0.25 µg/mL
same,MIC,[8],0.25 µg/mL
O=C(O)c1cn(-c2ccc(F)cc2)c2cc(N3CCN(Cc4nc5cc(Cl)ccc5c(=O)[nH]4)CC3)c(F)cc2c1=O,MIC,[1],0.125 µg/mL
same,MIC,[5],0.125 µg/mL
O=C(O)c1cn(C2CC2)c2cc(N3CCN(Cc4nc5cc(Cl)ccc5c(=O)[nH]4)CC3)c(F)cc2c1=O,MIC,[1],0.016 µg/mL
same,MIC,[5],0.016 µg/mL
COc1ccc2nc(CN3CCN(c4cc5c(cc4F)c(=O)c(C(=O)O)cn5-c4ccc(F)cc4)CC3)[nH]c(=O)c2c1,MIC,[1],0.125 µg/mL
same,MIC,[5],0.125 µg/mL
O=C(O)c1cn(-c2ccc(F)cc2)c2cc(N3CCN(Cc4nc5ccccc5c(=O)[nH]4)CC3)c(F)cc2c1=O,MIC,[1],0.125 µg/mL
same,MIC,[5],0.125 µg/mL
Cc1nc(Cl)nc(N2CCN(c3cc4c(cc3F)c(=O)c(C(=O)O)cn4C3CC3)CC2)c1N,MIC,[19],7.4 µg/mL
same,MIC,[20],7.4 µg/mL
O=C(O)c1cn(C2CC2)c2cc(N3CCN(Cc4c(O)ccc5ccccc45)CC3)c(F)cc2c1=O,MIC,[6],0.012 µg/mL
same,MIC,[7],0.012 µg/mL
same,MIC,[9],0.012 µg/mL
same,MIC,[21],0.012 µg/mL
same,MIC,[10],0.012 µg/mL
O=C(O)c1cn(C2CC2)c2cc(N3CCN(CN4c5ccccc5C(=O)N(c5ccc(Cl)cc5)C4c4ccccc4)CC3)c(F)cc2c1=O (configuration not stated),MIC,[22],0.1 µg/mL
same,MIC,[1],0.1 µg/mL
same,MIC,[16],0.1 µg/mL
same,MIC,[23],0.1 µg/mL
same,MIC,[6],0.1 µg/mL
same,MIC,[24],0.1 µg/mL
same,MIC,[21],0.1 µg/mL
same,MIC,[25],0.1 µg/mL
COc1ccc2nc(CN3CCN(c4cc5c(cc4F)c(=O)c(C(=O)O)cn5C4CC4)CC3)[nH]c(=O)c2c1,MIC,[1],0.016 µg/mL
same,MIC,[5],0.016 µg/mL
O=C(CN1CCN(c2cc3c(cc2F)c(=O)c(C(=O)O)cn3-c2ccc(F)cc2)CC1)c1ccc(Cl)cc1,MIC,[15],0.5 µg/mL
same,MIC,[1],0.5 µg/mL
same,MIC,[16],0.5 µg/mL
same,MIC,[6],0.5 µg/mL
same,MIC,[7],0.5 µg/mL
same,MIC,[26],0.5 µg/mL
same,MIC,[21],0.5 µg/mL
O=C(O)c1cn(C2CC2)c2cc(N3CCN(CN4c5ccccc5C(=O)N(c5ccc(Br)cc5)C4c4ccccc4)CC3)c(F)cc2c1=O (configuration not stated),MIC,[22],0.1 µg/mL
same,MIC,[1],0.1 µg/mL
same,MIC,[16],0.1 µg/mL
same,MIC,[23],0.1 µg/mL
same,MIC,[6],0.1 µg/mL
same,MIC,[24],0.1 µg/mL
same,MIC,[21],0.1 µg/mL
same,MIC,[25],0.1 µg/mL
O=C(O)c1cn(C2CC2)c2cc(N3CCN(Cc4nc5ccc(Cl)cc5c(=O)[nH]4)CC3)c(F)cc2c1=O,MIC,[1],0.016 µg/mL
same,MIC,[5],0.016 µg/mL
COc1cc(C=O)cc(CN2CCN(c3cc4c(cc3F)c(=O)c(C(=O)O)cn4C3CC3)CC2)c1O,MIC,[6],0.012 µg/mL
same,MIC,[7],0.012 µg/mL
same,MIC,[9],0.012 µg/mL
same,MIC,[21],0.012 µg/mL
same,MIC,[10],0.012 µg/mL
COc1c(N2CCNC(C)C2)c(F)cc2c(=O)c(C(=O)O)cn(C3CC3)c12 (configuration not stated) [GATIFLOXACIN],MIC,[1],0.06 µg/mL
same,MIC,[27],0.06 µg/mL
same,MIC,[28],0.06 µg/mL
C[C@H]1COc2c(N3CCN(C)CC3)c(F)cc3c(=O)c(C(=O)O)cn1c23.C[C@H]1COc2c(N3CCN(C)CC3)c(F)cc3c(=O)c(C(=O)O)cn1c23.O [LEVOFLOXACIN],MIC,[29],4 µg/mL
same,MIC50,[17],128 µg/mL
same,MIC90,[17],> 128 µg/mL
same,MIC,[12],0.015 µg/mL
same,MIC,[30],4 µg/mL
Cc1ncc([N+](=O)[O-])n1CCO [METRONIDAZOLE],MIC50,[17],2 µg/mL
same,MIC90,[17],4 µg/mL
CCn1cc(C(=O)O)c(=O)c2cc(F)c(N3CCNCC3)cc21 [NORFLOXACIN],MIC,[1],< 0.24 µg/mL
same,MIC,[6],< 0.24 µg/mL
same,MIC,[7],< 0.24 µg/mL
same,MIC,[8],0.0625 µg/mL
same,MIC,[31],< 0.24 µg/mL
same,MIC,[32],< 0.24 µg/mL
same,MIC,[33],< 0.24 µg/mL
same,MIC,[25],2.4 µg/mL
O=C(O)c1cn(-c2ccc(F)cc2)c2cc(N3CCNCC3)c(F)cc2c1=O [SARAFLOXACIN],MIC,[15],< 0.125 µg/mL
same,MIC,[1],< 0.125 µg/mL
same,MIC,[16],< 0.125 µg/mL
CN[C@H](CC(C)C)C(=O)N[C@H]1C(=O)N[C@@H](CC(N)=O)C(=O)N[C@H]2C(=O)N[C@H]3C(=O)N[C@H](C(=O)N[C@H](C(=O)O)c4cc(O)cc(O)c4-c4cc3ccc4O)[C@H](O)c3ccc(c(Cl)c3)Oc3cc2cc(c3O[C@@H]2O[C@H](CO)[C@@H](O)[C@H](O)[C@H]2O[C@H]2C[C@](C)(N)[C@H](O)[C@H](C)O2)Oc2ccc(cc2Cl)[C@H]1O [VANCOMYCIN],MIC50,[17],2 µg/mL
same,MIC90,[17],4 µg/mL
